Measurements published in patent US20230087118A1, “IMIDAZO[1,2-a][sequence] DERIVATIVES AND THEIR USE IN THE TREATMENT OF DISEASE” (priority 2019, published 2023).
Structures can show the parent of a compound that is named as a salt. Where two headings read alike, the source gives them in different places.

Target: T1, IRAK4 (Homo sapiens, UniProt Q9NWZ3)
T1 sequence (Q9NWZ3 1-460): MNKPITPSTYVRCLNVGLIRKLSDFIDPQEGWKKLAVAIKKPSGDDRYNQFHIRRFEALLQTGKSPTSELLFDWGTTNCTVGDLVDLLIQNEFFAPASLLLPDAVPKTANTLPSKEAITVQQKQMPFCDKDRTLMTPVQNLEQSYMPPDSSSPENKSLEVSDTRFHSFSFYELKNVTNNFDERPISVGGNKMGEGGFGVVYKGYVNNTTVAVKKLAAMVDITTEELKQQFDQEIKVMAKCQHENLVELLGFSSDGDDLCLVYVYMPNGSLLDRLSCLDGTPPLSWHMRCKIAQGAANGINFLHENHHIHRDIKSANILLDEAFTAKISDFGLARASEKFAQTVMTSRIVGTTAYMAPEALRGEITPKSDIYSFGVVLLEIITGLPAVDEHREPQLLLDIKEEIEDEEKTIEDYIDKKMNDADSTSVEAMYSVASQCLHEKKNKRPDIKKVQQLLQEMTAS
Experiment: biochemical

[1] = IRAK4 Biochemical Assay (1 mM ATP, 2 h) IC50 (μM), 1 mM ATP, 2 h, 100 pM IRAK4

COc1ncccc1NC(=O)c1cn2cc(C3CC3)nc2cc1OC1CCCC1 [Example 464, 7-(Cyclopentyloxy)-2-cyclopropyl-N-(2-methoxypyridin-3-yl)imidazo[1,2-a]pyridine-6-carboxamide]
IC50: 0.0081 µM

COc1cc2nc(C3CCOCC3)cn2cc1C(=O)Nc1cccnc1O [Example 189]
IC50: 0.0165 µM

CC(C)Oc1cc2nc(C34COC(C)(C3)C4)cn2cc1C(=O)Nc1cnn2ccc(Cl)nc12 [Example 264, N-(5-chloropyrazolo[1,5-a]pyrimidin-3-yl)-7-isopropoxy-2-(1-methyl-2-oxabicyclo[2.1.1]hexan-4-yl)imidazo[1,2-a]pyridine-6-carboxamide]
IC50: 0.0002 µM

COc1cc2nc(C34CC(F)(C3)C4)cn2cc1C(=O)Nc1ccccn1 [Example 3]
IC50 [1]: 0.217 µM

CN1CCC(Oc2cc3nc(C4CC4)cn3cc2C(=O)Nc2cccc(C(F)F)n2)C1=O (stereo not drawn) [Example 469, 2-Cyclopropyl-N-(6-(difluoromethyl)pyridin-2-yl)-7-((1-methyl-2-oxopyrrolidin-3-yl)oxy)imidazo[1,2-a]pyridine-6-carboxamide]
IC50 [1]: 0.0412 µM

CC(C)Oc1nc2nc(C34COC(C)(C3)C4)cn2cc1C(=O)Nc1cccc(OC(F)F)n1 [Example 411, N-(6-(difluoromethoxy)pyridin-2-yl)-7-isopropoxy-2-(1-methyl-2-oxabicyclo[2.1.1]hexan-4-yl)imidazo[1,2-a]pyrimidine-6-carboxamide]
IC50: 0.0008 µM

CC(C)Oc1cc2nc(C34CCC(C)(C3)OC4)cn2cc1C(=O)Nc1cccc(C(F)F)n1 (stereo not drawn) [Example 243]
IC50: 0.0002 µM

COc1ncccc1NC(=O)c1cn2cc(C3CC3)nc2nc1OC(C)C [Example 283, 2-Cyclopropyl-7-isopropoxy-N-(2-methoxypyridin-3-yl)imidazo[1,2-a]pyrimidine-6-carboxamide]
IC50: 0.0025 µM

CC(C)(C)c1cn2cc(C(=O)Nc3cccc(C(F)F)n3)c(OC3COC4(CC4)C3)cc2n1 (stereo not drawn) [Example 268, 7-((4-Oxaspiro[2.4]heptan-6-yl)oxy)-2-(tert-butyl)-N-(6-(difluoromethyl)pyridin-2-yl)imidazo[1,2-a]pyridine-6-carboxamide]
IC50: 0.0083 µM

CCOc1nc(C(=O)Nc2cccc3ccnn23)cn2cc(C34COC(C)(C3)C4)nc12 [Example 489, 8-Ethoxy-2-(1-methyl-2-oxabicyclo[2.1.1]hexan-4-yl)-N-(pyrazolo[1,5-a]pyridin-7-yl)imidazo[1,2-a]pyrazine-6-carboxamide]
IC50: 0.0031 µM

CC(C)Oc1nc2nc(C34CCC(C)(CC3)OC4)cn2cc1C(=O)Nc1cccc(C(F)F)n1 [Example 383, N-(6-(difluoromethyl)pyridin-2-yl)-7-isopropoxy-2-(1-methyl-2-oxabicyclo[2.2.2]octan-4-yl)imidazo[1,2-a]pyrimidine-6-carboxamide]
IC50 [1]: 0.0001 µM

CCOc1nc(C(=O)Nc2cccnc2OC)cn2cc(C3CC3)nc12 [Example 279, 2-Cyclopropyl-8-ethoxy-N-(2-methoxypyridin-3-yl)imidazo[1,2-a]pyrazine-6-carboxamide trifluoroacetate]
IC50 [1]: 0.0038 µM

COc1ncccc1NC(=O)c1cn2cc(C3CC3)nc2cc1OC1CCC1 [Example 462, 7-Cyclobutoxy-2-cyclopropyl-N-(2-methoxypyridin-3-yl)imidazo[1,2-a]pyridine-6-carboxamide]
IC50: 0.0032 µM

Cc1cnc2c(NC(=O)c3cn4cc(C56COC(C)(C5)C6)nc4nc3OC3CCC3)cnn2c1 [Example 575, 7-Cyclobutoxy-2-(1-methyl-2-oxabicyclo[2.1.1]hexan-4-yl)-N-(6-methylpyrazolo[1,5-a]pyrimidin-3-yl)imidazo[1,2-a]pyrimidine-6-carboxamide]
IC50: 0.0007 µM

CCOc1nc(C(=O)Nc2cccnc2OC(F)F)cn2cc(C34COC(C)(C3)C4)nc12 [Example 492, N-(2-(difluoromethoxy)pyridin-3-yl)-8-ethoxy-2-(1-methyl-2-oxabicyclo[2.1.1]hexan-4-yl)imidazo[1,2-a]pyrazine-6-carboxamide]
IC50: 0.0016 µM

COc1ncccc1NC(=O)c1cn2cc(C34COC(C3)C4)nc2cc1OC(C)C [Example 545, 2-(2-Oxabicyclo[2.1.1]hexan-4-yl)-7-isopropoxy-N-(2-methoxypyridin-3-yl)imidazo[1,2-a]pyridine-6-carboxamide]
IC50: 0.0013 µM

CC1(C)CC(Oc2cc3nc(C4CC4)cn3cc2C(=O)Nc2cccc(C(F)F)n2)C1 [Example 472, 2-Cyclopropyl-N-(6-(difluoromethyl)pyridin-2-yl)-7-(3,3-dimethylcyclobutoxy)imidazo[1,2-a]pyridine-6-carboxamide]
IC50: 0.0064 µM

COc1ncccc1NC(=O)c1cn2cc([C@]34CC[C@](C)(C3)OC4)nc2c(OC)n1 (single isomer, unassigned) [Example 586]
IC50: 0.002 µM

COc1nc(C(=O)Nc2cccc(C(F)F)n2)cn2cc(C3CCOCC3)nc12 [Example 206, N-[6-(difluoromethyl)-2-pyridyl]-8-methoxy-2-tetrahydropyran-4-ylimidazo[1,2-a]pyrazine-6-carboxamide trifluoroacetate]
IC50 [1]: 0.0128 µM

COc1c(C(=O)Nc2cccc(C(F)F)n2)cn2cc(C34COC(C)(C3)C4)nc2c1C [Example 290, N-(6-(difluoromethyl)pyridin-2-yl)-7-methoxy-8-methyl-2-(1-methyl-2-oxabicyclo[2.1.1]hexan-4-yl)imidazo[1,2-a]pyridine-6-carboxamide]
IC50: 0.0276 µM

COc1cccc(NC(=O)c2cn3cc(C45CCC(C)(C4)OC5)nc3cc2OC)n1 (stereo not drawn) [Example 27]
IC50 [1]: 0.0198 µM

CC(C)Oc1cc2nc([C@@]34CC[C@@H](C3)OC4)cn2cc1C(=O)Nc1cccc(C(F)F)n1 (single isomer, unassigned) [Example 590]
IC50: 0.0001 µM

COc1cc2nc(C3CCOCC3)cn2cc1C(=O)Nc1cccc(F)c1F [Example 113]
IC50: 0.0357 µM

CC(C)Oc1nc2nc([C@]34CC[C@](C)(C3)OC4)cn2cc1C(=O)Nc1cccc(C(F)F)n1 (single isomer, unassigned) [Example 577]
IC50: 0.0002 µM

CC(C)Oc1nc(C(=O)Nc2cnn3cccnc23)cn2cc(C34COC(CF)(C3)C4)nc12 [Example 340, 2-(1-(Fluoromethyl)-2-oxabicyclo[2.1.1]hexan-4-yl)-8-isopropoxy-N-(pyrazolo[1,5-a]pyrimidin-3-yl)imidazo[1,2-a]pyrazine-6-carboxamide]
IC50: 0.0067 µM

CCOc1nc(C(=O)Nc2cccnc2OC)cn2cc([C@@]34CC[C@@](C)(C3)OC4)nc12 (single isomer, unassigned) [Example 605]
IC50: 0.0004 µM

CCOc1cc2nc(C3CN(CC(F)F)C3)cn2cc1C(=O)Nc1cccc(C(F)F)n1 [Example 90]
IC50 [1]: 0.0015 µM

CC(C)(C)c1cn2cc(C(=O)Nc3cccc(C(F)F)n3)c(OC3CCC3)cc2n1 [Example 267, 2-(tert-Butyl)-7-cyclobutoxy-N-(6-(difluoromethyl)pyridin-2-yl)imidazo[1,2-a]pyridine-6-carboxamide]
IC50: 0.002 µM

COc1nc(C(=O)Nc2ccccn2)cn2cc(C3CCOCC3)nc12 [Example 78]
IC50 [1]: 0.0475 µM

O=C(Nc1cccc(C(F)F)n1)c1cn2cc(C3CC3)nc2cc1OCC1CC(F)(F)C1 [Example 471, 2-Cyclopropyl-7-((3,3-difluorocyclobutyl)methoxy)-N-(6-(difluoromethyl)pyridin-2-yl)imidazo[1,2-a]pyridine-6-carboxamide]
IC50 [1]: 0.0058 µM
